Assay results from ChEMBL document CHEMBL5042477, “Potent Cyclic Peptide Inhibitors of FXIIa Discovered by mRNA Display with Genetic Code Reprogramming” (J Med Chem, 2021).
Where a SMILES comes first, the peptide text is derived from it. Bridges are numbered along the chain shown (N, C = ends). [ ]: non-standard residue; d: D form. Phe(2-CF3) = N[C@@H](Cc1ccccc1C(F)(F)F)C(=O)O; Phe(3-CN) = N#Cc1cccc(C[C@H](N)C(=O)O)c1; Phe(2-OMe) = COc1ccccc1C[C@H](N)C(=O)O; Phe(4-F) = N[C@@H](Cc1ccc(F)cc1)C(=O)O; Phe(2-F) = N[C@@H](Cc1ccccc1F)C(=O)O; hTyr = N[C@@H](CCc1ccc(O)cc1)C(=O)O; hArg = N=C(N)NCCCC[C@H](N)C(=O)O; hPhe = N[C@@H](CCc1ccccc1)C(=O)O; Cha = N[C@@H](CC1CCCCC1)C(=O)O; Agb = N=C(N)NCC[C@H](N)C(=O)O; Orn = NCCC[C@H](N)C(=O)O

Target: T1, Coagulation factor XII (Homo sapiens, UniProt P00748)
T1 sequence (P00748 whole entry): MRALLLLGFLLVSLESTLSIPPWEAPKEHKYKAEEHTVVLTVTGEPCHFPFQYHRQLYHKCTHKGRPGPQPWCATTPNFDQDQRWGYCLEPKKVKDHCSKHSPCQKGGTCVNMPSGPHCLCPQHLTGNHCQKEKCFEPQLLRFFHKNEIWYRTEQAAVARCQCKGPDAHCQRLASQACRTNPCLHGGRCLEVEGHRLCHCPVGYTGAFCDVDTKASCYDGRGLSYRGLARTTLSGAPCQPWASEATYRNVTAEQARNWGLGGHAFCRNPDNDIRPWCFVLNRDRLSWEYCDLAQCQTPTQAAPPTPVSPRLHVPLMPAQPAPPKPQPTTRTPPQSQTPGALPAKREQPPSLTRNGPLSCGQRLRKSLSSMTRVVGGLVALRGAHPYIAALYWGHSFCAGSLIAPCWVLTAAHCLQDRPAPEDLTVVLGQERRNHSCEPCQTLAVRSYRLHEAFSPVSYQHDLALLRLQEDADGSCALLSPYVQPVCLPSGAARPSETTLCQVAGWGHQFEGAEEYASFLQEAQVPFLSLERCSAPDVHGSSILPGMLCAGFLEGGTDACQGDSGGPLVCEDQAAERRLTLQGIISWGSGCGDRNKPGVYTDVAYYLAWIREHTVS
Assay: Inhibition of human factor 12a using H-D-Pro-Phe-Arg-p-nitroanilide as chromogenic substrate assessed as liberation of p-nitroaniline measured every 5 mins for 60 min by multimode plate reader analysis

| IC50 | SMILES |
| --- | --- |
| 79000 nM | CC(C)C[C@@H]1NC(=O)[C@H](Cc2ccc(O)cc2)NC(=O)CSC[C@@H](C(N)=O)NC(=O)CNC(=O)CNC(=O)[C@H](CCCNC(=N)N)NC(=O)[C@H](CC(=O)O)NC(=O)[C@H](CCCCN)NC(=O)[C@@H]2CCCN2C(=O)[C@H](C)NC(=O)[C@H](Cc2ccccc2)NC(=O)[C@H](CCCNC(=N)N)NC1=O ({CH2CO}-YLRFAPKDRGGC-NH2; thioether N-12) |
| 530 nM | COc1ccc(C[C@@H]2NC(=O)CSC[C@@H](C(N)=O)NC(=O)CNC(=O)CNC(=O)[C@H](CCCNC(=N)N)NC(=O)[C@H](CC(=O)O)NC(=O)[C@H](CCCCN)NC(=O)[C@@H]3CCCN3C(=O)[C@H](CCCNC(=N)N)NC(=O)[C@H](Cc3ccccc3)NC(=O)[C@H](CCCNC(=N)N)NC(=O)[C@H](CC(C)C)NC2=O)cc1 ({CH2CO}-Y(Me)LRFRPKDRGGC-NH2; thioether N-12) |
| 110000 nM | CC(C)C[C@@H]1NC(=O)[C@H](Cc2ccc(O)cc2)NC(=O)CSC[C@@H](C(N)=O)NC(=O)CNC(=O)CNC(=O)[C@H](CCCNC(=N)N)NC(=O)[C@H](CC(=O)O)NC(=O)[C@H](CCCCN)NC(=O)[C@@H]2CCCN2C(=O)[C@H](CCCNC(=N)N)NC(=O)[C@H](Cc2ccccc2)NC(=O)[C@H](C)NC1=O ({CH2CO}-YLAFRPKDRGGC-NH2; thioether N-12) |
| 73 nM | CC(C)C[C@@H]1NC(=O)[C@H](Cc2ccc(O)cc2)NC(=O)CSC[C@@H](C(N)=O)NC(=O)CNC(=O)CNC(=O)[C@H](CCCNC(=N)N)NC(=O)[C@H](CC(=O)O)NC(=O)[C@H](CCCCN)NC(=O)[C@@H]2CCCN2C(=O)[C@H](CCCNC(=N)N)NC(=O)[C@H](Cc2ccccc2)NC(=O)[C@H](CCCCNC(=N)N)NC1=O ({CH2CO}-YL[hArg]FRPKDRGGC-NH2; thioether N-12) |
| 53 nM | CC(C)C[C@@H]1NC(=O)[C@H](Cc2ccc(O)cc2)NC(=O)CSC[C@@H](C(N)=O)NC(=O)CNC(=O)CNC(=O)[C@H](CCCNC(=N)N)NC(=O)[C@H](CC(=O)O)NC(=O)[C@H](CCCCN)NC(=O)[C@@H]2CCCN2C(=O)[C@H](CCCNC(=N)N)NC(=O)[C@H](CC2CCCCC2)NC(=O)[C@H](CCCNC(=N)N)NC1=O ({CH2CO}-YLR[Cha]RPKDRGGC-NH2; thioether N-12) |
| 2300 nM | CC(C)C[C@@H]1NC(=O)[C@H](Cc2ccc(O)cc2)NC(=O)CSC[C@@H](C(N)=O)NC(=O)CNC(=O)CNC(=O)[C@H](CCC(N)=O)NC(=O)[C@H](CC(N)=O)NC(=O)[C@H]([C@@H](C)O)NC(=O)[C@H](C)NC(=O)[C@H](CCCCN)NC(=O)[C@H](CC(C)C)NC(=O)[C@H](CCCNC(=N)N)NC1=O ({CH2CO}-YLRLKATNQGGC-NH2; thioether N-12) |
| 60 nM | COc1ccccc1C[C@@H]1NC(=O)[C@H](CCCNC(=N)N)NC(=O)[C@H](CC(C)C)NC(=O)[C@H](Cc2ccc(O)cc2)NC(=O)CSC[C@@H](C(N)=O)NC(=O)CNC(=O)CNC(=O)[C@H](CCCNC(=N)N)NC(=O)[C@H](CC(=O)O)NC(=O)[C@H](CCCCN)NC(=O)[C@@H]2CCCN2C(=O)[C@H](CCCNC(=N)N)NC1=O ({CH2CO}-YLR[Phe(2-OMe)]RPKDRGGC-NH2; thioether N-12) |
| 120000 nM | CC(C)C[C@@H]1NC(=O)[C@H](Cc2ccccc2C(F)(F)F)NC(=O)CSC[C@@H](C(N)=O)NC(=O)CNC(=O)CNC(=O)[C@H](CCCNC(=N)N)NC(=O)[C@H](CC(=O)O)NC(=O)[C@H](CCCCN)NC(=O)[C@@H]2CCCN2C(=O)[C@H](CCCNC(=N)N)NC(=O)[C@H](Cc2ccccc2)NC(=O)[C@H](CCCNC(=N)N)NC1=O ({CH2CO}-[Phe(2-CF3)]LRFRPKDRGGC-NH2; thioether N-12) |
| 650 nM | CC(C)C[C@@H]1NC(=O)[C@H](Cc2ccc(O)cc2)NC(=O)CSC[C@@H](C(N)=O)NC(=O)CNC(=O)CNC(=O)[C@H](C)NC(=O)[C@H](CC(=O)O)NC(=O)[C@H](CCCCN)NC(=O)[C@@H]2CCCN2C(=O)[C@H](CCCNC(=N)N)NC(=O)[C@H](Cc2ccccc2)NC(=O)[C@H](CCCNC(=N)N)NC1=O ({CH2CO}-YLRFRPKDAGGC-NH2; thioether N-12) |
| 370000 nM | CC(C)C[C@@H]1NC(=O)[C@H](CCc2ccc(O)cc2)NC(=O)CSC[C@@H](C(N)=O)NC(=O)CNC(=O)CNC(=O)[C@H](CCCNC(=N)N)NC(=O)[C@H](CC(=O)O)NC(=O)[C@H](CCCCN)NC(=O)[C@@H]2CCCN2C(=O)[C@H](CCCNC(=N)N)NC(=O)[C@H](Cc2ccccc2)NC(=O)[C@H](CCCNC(=N)N)NC1=O ({CH2CO}-[hTyr]LRFRPKDRGGC-NH2; thioether N-12) |
| 3300 nM | CC(C)C[C@@H]1NC(=O)[C@H](Cc2ccc(O)cc2)NC(=O)CSC[C@@H](C(N)=O)NC(=O)CNC(=O)CNC(=O)[C@H](CCCNC(=N)N)NC(=O)[C@H](CC(=O)O)NC(=O)[C@H](CCCCN)NC(=O)[C@@H]2CCCN2C(=O)[C@H](CCNC(=N)N)NC(=O)[C@H](Cc2ccccc2)NC(=O)[C@H](CCCNC(=N)N)NC1=O ({CH2CO}-YLRF[Agb]PKDRGGC-NH2; thioether N-12) |
| 400000 nM | COc1ccccc1C[C@@H]1NC(=O)CSC[C@@H](C(N)=O)NC(=O)CNC(=O)CNC(=O)[C@H](CCCNC(=N)N)NC(=O)[C@H](CC(=O)O)NC(=O)[C@H](CCCCN)NC(=O)[C@@H]2CCCN2C(=O)[C@H](CCCNC(=N)N)NC(=O)[C@H](Cc2ccccc2)NC(=O)[C@H](CCCNC(=N)N)NC(=O)[C@H](CC(C)C)NC1=O ({CH2CO}-[Phe(2-OMe)]LRFRPKDRGGC-NH2; thioether N-12) |
| 400 nM | CC(C)C[C@@H]1NC(=O)[C@H](Cc2ccc(O)cc2)NC(=O)CSC[C@@H](C(N)=O)NC(=O)CNC(=O)CNC(=O)[C@H](CCCNC(=N)N)NC(=O)[C@H](CC(=O)O)NC(=O)[C@H](C)NC(=O)[C@@H]2CCCN2C(=O)[C@H](CCCNC(=N)N)NC(=O)[C@H](Cc2ccccc2)NC(=O)[C@H](CCCNC(=N)N)NC1=O ({CH2CO}-YLRFRPADRGGC-NH2; thioether N-12) |
| 140000 nM | CC(C)C[C@@H]1NC(=O)[C@H](CC2CCCCC2)NC(=O)CSC[C@@H](C(N)=O)NC(=O)CNC(=O)CNC(=O)[C@H](CCCNC(=N)N)NC(=O)[C@H](CC(=O)O)NC(=O)[C@H](CCCCN)NC(=O)[C@@H]2CCCN2C(=O)[C@H](CCCNC(=N)N)NC(=O)[C@H](Cc2ccccc2)NC(=O)[C@H](CCCNC(=N)N)NC1=O ({CH2CO}-[Cha]LRFRPKDRGGC-NH2; thioether N-12) |
| 410000 nM | CC(C)C[C@@H]1NC(=O)[C@H](CCc2ccccc2)NC(=O)CSC[C@@H](C(N)=O)NC(=O)CNC(=O)CNC(=O)[C@H](CCCNC(=N)N)NC(=O)[C@H](CC(=O)O)NC(=O)[C@H](CCCCN)NC(=O)[C@@H]2CCCN2C(=O)[C@H](CCCNC(=N)N)NC(=O)[C@H](Cc2ccccc2)NC(=O)[C@H](CCCNC(=N)N)NC1=O ({CH2CO}-[hPhe]LRFRPKDRGGC-NH2; thioether N-12) |
| 53 nM | CC(C)C[C@@H]1NC(=O)[C@H](Cc2ccc(O)cc2)NC(=O)CSC[C@@H](C(N)=O)NC(=O)CNC(=O)CNC(=O)[C@H](CCCNC(=N)N)NC(=O)[C@H](CC(=O)O)NC(=O)[C@H](CCCCN)NC(=O)[C@@H]2CCCN2C(=O)[C@H](CCCNC(=N)N)NC(=O)[C@H](Cc2ccccc2F)NC(=O)[C@H](CCCNC(=N)N)NC1=O ({CH2CO}-YLR[Phe(2-F)]RPKDRGGC-NH2; thioether N-12) |
| 2100 nM | CC(C)C[C@@H]1NC(=O)[C@H](Cc2ccc(O)cc2)NC(=O)CSC[C@@H](C(N)=O)NC(=O)CNC(=O)CNC(=O)[C@H](CCCNC(=N)N)NC(=O)[C@H](CC(=O)O)NC(=O)[C@H](CCCCN)NC(=O)[C@@H]2CCCN2C(=O)[C@H](CCCN)NC(=O)[C@H](Cc2ccccc2)NC(=O)[C@H](CCCNC(=N)N)NC1=O ({CH2CO}-YLRF[Orn]PKDRGGC-NH2; thioether N-12) |
| 587 nM | CC(C)C[C@@H]1NC(=O)[C@H](Cc2ccc(O)cc2)NC(=O)CSC[C@@H](C(N)=O)NC(=O)CNC(=O)CNC(=O)[C@H](CCCNC(=N)N)NC(=O)[C@H](CC(=O)O)NC(=O)[C@H](CCCCN)NC(=O)[C@@H]2CCCN2C(=O)[C@H](CCCNC(=N)N)NC(=O)[C@H](Cc2ccccc2)NC(=O)[C@H](CCNC(=N)N)NC1=O ({CH2CO}-YL[Agb]FRPKDRGGC-NH2; thioether N-12) |
| 450 nM | CC(C)C[C@@H]1NC(=O)[C@H](Cc2ccc(O)cc2)NC(=O)CSC[C@@H](C(N)=O)NC(=O)CNC(=O)CNC(=O)[C@H](CCC(N)=O)NC(=O)[C@H](CC(N)=O)NC(=O)[C@H](C)NC(=O)[C@@H]2CCCN2C(=O)[C@H](CCCCN)NC(=O)[C@H](CC(C)C)NC(=O)[C@H](CCCNC(=N)N)NC1=O ({CH2CO}-YLRLKPANQGGC-NH2; thioether N-12) |
| 3100 nM | CC(C)C[C@@H]1NC(=O)[C@H](Cc2cccc(C#N)c2)NC(=O)CSC[C@@H](C(N)=O)NC(=O)CNC(=O)CNC(=O)[C@H](CCCNC(=N)N)NC(=O)[C@H](CC(=O)O)NC(=O)[C@H](CCCCN)NC(=O)[C@@H]2CCCN2C(=O)[C@H](CCCNC(=N)N)NC(=O)[C@H](Cc2ccccc2)NC(=O)[C@H](CCCNC(=N)N)NC1=O ({CH2CO}-[Phe(3-CN)]LRFRPKDRGGC-NH2; thioether N-12) |
| 470 nM | CC(C)C[C@@H]1NC(=O)[C@H](Cc2ccc(F)cc2)NC(=O)CSC[C@@H](C(N)=O)NC(=O)CNC(=O)CNC(=O)[C@H](CCCNC(=N)N)NC(=O)[C@H](CC(=O)O)NC(=O)[C@H](CCCCN)NC(=O)[C@@H]2CCCN2C(=O)[C@H](CCCNC(=N)N)NC(=O)[C@H](Cc2ccccc2)NC(=O)[C@H](CCCNC(=N)N)NC1=O ({CH2CO}-[Phe(4-F)]LRFRPKDRGGC-NH2; thioether N-12) |
